The values below come from patent US20030044412A1, “Membrane estrogen receptor-directed therapy in breast cancer” (priority 2002, published 2003).

Test [1] deals with MCF-7 human breast cancer cells. Put plainly: Assay of cell proliferation in vitro (cell counts). It is filed as cell-based. Particulars: for cell growth after brief treatment with BSA conjugate: 0.5 μM for 10 min, 72 h in estrogen-free media.
In test [2] the test system is Akt kinase. The experiment in a line: Akt kinase activity (phosphorylated GSK-3 densitometry) in MCF-7 cells. It is filed as cell-based, human.
The test system of test [3] is MAPK, ERK-1 (p44) and ERK-2 (p42). The experiment in a line: p44/42 MAPK phosphorylation/activity in MCF-7 cells. The format is cell-based, human.
Test [4] concerns surface membrane ER of MCF-7 (MCF-7 PAR) breast cancer cells. The experiment in a line: Membrane labeling with E2β-BSA-FITC, fluorescent microscopy and flow cytometry. It is filed as binding, human. For orientation: In flow cytometry, cells or beads pass a laser one at a time.
For test [5], the system named is MAPK, ERK-1 (p44) and ERK-2 (p42). Particulars: independent report (40); cited from earlier work.
The subject of test [6] is estrogen receptor. Put plainly: Serine phosphorylation of estrogen receptor in human breast cancer cells. It is filed as cell-based. Particulars: prior exposure, 15 minutes after estrogen. On the procedure: FIG. 12 is a gel showing that the MAPKK (MEK) inhibitor, PD 98059 (PD), reduces estrogen (E2)-induced serine phosphorylation of estrogen receptor. Serine phosphorylation of estrogen receptor in human breast cancer cells was assessed at 15-60 min after treatment with E2 alone or in combination with PD 98059
This blockade of estrogen-induced MAP kinase activation by PD 980959 results in the suppression of estrogen-induced growth of MCF-7 breast cancer cells (see FIG. 13).

Test [7] has as its target plasma membranes from MCF-7 human breast cancer cells (membrane-associated estrogen receptor) (Homo sapiens, UniProt P03372). Particulars: 100-fold molar excess of competitor.
Test [8] concerns the target T1, HER-2 receptor / estrogen receptor association (Homo sapiens, UniProt P04626+P21860).
T1 construct: endogenous in cells; host or cells: MCF-7 PAR
The experiment in a line: Immunoprecipitation/Western blot of HER-2 receptor with ER. It is filed as cell-based. Particulars: 10 nM, 5-60 minutes, MCF-7 cells. As to the method: MCF-7 breast cancer cells were treated in vitro for 5-60 minutes with 10 nM heregulin, a ligand known to activate HER-2/HER-3 receptors (3). Lysates were prepared and processed as described before (3). Samples were immunoprecipitated with anti-HER-2 antibody (IP:HER-2 receptor) prior to electrophoresis and Western blotting with anti-ER antibody H222 (IB: estrogen receptor). Estrogen receptor normally occurs as a 65- to 70-kd protein (3). The experiment shown here is representative of results from 4 other experiments. In independent experiments in which samples were immunoprecipitated with anti-ER antibody prior to electrophoresis and Western blotting with anti-HER-2 antibody, a similar association between ER and HER-2 receptors was found.
To further evaluate prior reports of cross-communication between ER and HER-2 receptors (3,24,29,54), MCF-7 PAR cells were treated in vitro with heregulin, a ligand for activation of HER-2/HER-3 receptor heterodimers (3). […] MCF-7 breast cancer cells were treated in vitro for 5-60 minutes with 10 nM heregulin, a ligand known to activate HER-2/HER-3 receptors (3). Lysates were prepared and processed as described before (3). Samples were immunoprecipitated with anti-HER-2 antibody (IP: HER-2 receptor) prior to electrophoresis and Western blotting with anti-ER antibody H222 (IB: estrogen receptor). […]

Like-named read-outs stand apart in the source and are kept apart here.

As for “6 keto-17α-estradiol 6-(o-carboximethyloxime:BSA [Ab E2α-BSA]”, in test [1], the “cell growth after brief treatment with BSA conjugate” value was “not”.
“17β-estradiol 17-hemisuccinate covalently linked to bovine serum albumin [Ab E2β-BSA]”: the “activation of Akt kinase” value in test [2] (10 nM E2β or 0.5 μM E2β-BSA for 20 min) is “significant activation”. Besides, the “cell growth after brief treatment with BSA conjugate” value in test [1] was “stimulates cell growth”. Further, in test [1] (10 min treatment, counted after 48 hrs in estrogen-free media, P<0.001), the “proliferative response to short-term treatment” value is reported as “stimulate cell growth”. For the same molecule, in test [3] (10 nM E2β, E2α, 0.5 μM BSA conjugates), the “phosphorylation of MAPK isoforms” value is given as “phosphorylation of MAPK isoforms is again evident”.
Consider `N#CC(=C(/N)Sc1ccccc1N)/C(C#N)=C(\N)Sc1ccccc1N` [Ab U0126], for which the “Inhibition of MCF-7 cell growth” value in test [1] (10 μM for 2 h before VH, 10 nM E2 or 1 μM E2-BSA, 72 h) is “Inhibition”. Besides, the “inhibition of MAPK phosphorylation/activation induced by E2β or E2β-BSA” value in test [3] (Ab2 10 μg/ml 2 h or U0126 25 μM 90 min preincubation) is recorded as “prevented activation”.
`C[C@]12CC[C@@H]3c4ccc(O)cc4C[C@@H](CCCCCCCCC[S+]([O-])CCCC(F)(F)C(F)(F)F)[C@H]3[C@@H]1CC[C@@H]2O` (stereo partly drawn) [ICI 182,780]: in test [2] (preincubation: Ab2 10 μg/ml, ICI 182,780 1 μM, LY294002 10 μM), the “inhibition of estrogen-induced Akt kinase activation” value is reported as “inhibition”. The “blockade of proliferative effect of E2β-BSA” value in test [1] (10 nM ICI 182,780 with 200 nM E2-BSA, 10 min, 48 hrs) is listed as “blocked”. Moreover, the “blockade of proliferative effect of E2β-BSA” value in test [1] (0.5 μM E2β-BSA 10 min, 72 h) is “blocked”. In test [4], the “competition for E2β-BSA-FITC surface binding (flow cytometry)” value was “significant reduction” and the “competition for membrane-associated binding of E2β-BSA-FITC” value is “competitively reduced”. Moreover, the “inhibition of estrogen-induced MAPK activity in MCF-7 cells” value in test [5] was “inhibit”.
For `COc1cccc(-c2cc(=O)c3ccccc3o2)c1N` [PD 98059], the “suppression of estrogen-induced growth” value in test [1] (20 micromolar inhibitor, estradiol-17β at 2 nM) is on record as “suppression”. In addition, the “suppression of estrogen-induced serine phosphorylation of the estrogen receptor” value in test [6] is “suppressed”. Besides, the “blockade of estradiol activation of MAP kinase” value in test [3] (pre-treatment, 20 μM) is “blocked”.
As for `CC(=O)[C@H]1CC[C@H]2[C@@H]3CCC4=CC(=O)CC[C@]4(C)[C@H]3CC[C@]12C` [progesterone], the “competition for membrane-associated binding of E2β-BSA-FITC” value in test [4] (MCF-7 PAR cells, Ab 1 at 1 μg/ml) is recorded as “not”. In addition, the “competition for E2β-BSA-FITC surface binding (flow cytometry)” value in test [4] (MCF-7 cells, P<0.01) is “not effective”. In addition, the “suppression of [3H]E2β binding to PM by unlabeled competing steroid” value in test [7] is listed as “essentially uninfluenced”.
Regarding `C[C@]12CC[C@H]3[C@@H](CCC4=CC(=O)CC[C@@]43C)[C@@H]1CC[C@@H]2O` [testosterone], the “suppression of [3H]E2β binding to PM by unlabeled competing steroid” value in test [7] is given as “essentially uninfluenced”.
In the case of heregulin, the “physical association of HER-2 receptor with estrogen receptor” value in test [8] is given as “promotes physical association”.
